This is an account of results in ChEMBL document CHEMBL1137119, “Design and synthesis of 3-(2-pyridyl)pyrazolo[1,5-a]pyrimidines as potent CRF1 receptor antagonists” (Bioorg Med Chem Lett, 2004).

The target of experiment [1] is T1, Corticotropin-releasing factor receptor 1 (Homo sapiens, UniProt P34998).
T1 sequence (P34998 whole entry): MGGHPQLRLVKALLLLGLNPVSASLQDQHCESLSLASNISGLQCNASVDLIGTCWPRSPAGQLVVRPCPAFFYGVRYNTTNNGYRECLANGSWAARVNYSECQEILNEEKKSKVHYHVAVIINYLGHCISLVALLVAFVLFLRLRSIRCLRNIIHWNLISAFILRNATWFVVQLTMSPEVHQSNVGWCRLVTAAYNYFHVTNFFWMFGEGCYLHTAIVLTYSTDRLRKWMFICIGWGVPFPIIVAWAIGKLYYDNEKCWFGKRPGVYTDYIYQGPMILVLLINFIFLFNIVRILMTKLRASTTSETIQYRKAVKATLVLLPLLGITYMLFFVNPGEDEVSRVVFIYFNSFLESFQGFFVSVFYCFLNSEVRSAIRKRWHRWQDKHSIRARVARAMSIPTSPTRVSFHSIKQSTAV
Briefly: Binding affinity for recombinant human CRF1 receptor.

Experiment [2] concerns the target T1, Corticotropin-releasing factor receptor 1. Briefly: Inhibition of CRF-stimulated cAMP production in cells expressing CRF1 receptor.

As for `CCCN(CCOC)c1cc(C)nc2c(-c3ncc(Cl)cc3Cl)c(C)nn12`, the Ki in experiment [1] worked out at 3.2 nM.

Take `CCCCN(CCC)c1cc(C)nc2c(-c3ncc(C(F)(F)F)cc3Cl)c(C)nn12`: the Ki in experiment [1] turned out to be 1.2 nM.

`CCCN(CCC)c1cc(C)nc2c(-c3ncc(Cl)cc3C)c(C)nn12`: the Ki in experiment [1] is 6.7 nM.

For the molecule `CCCN(CCC)c1cc(C)nc2c(-c3ncc(N=O)cc3C)c(C)nn12`, the Ki in experiment [1] is 100 nM.

`CCCN(CCC)c1cc(C)nc2c(-c3ncc(C)cc3N=O)c(C)nn12`: the Ki in experiment [1] is over 10000 nM.

Take `CCCN(CCC)c1cc(C)nc2c(-c3ncc(NC)cc3C)c(C)nn12`: the Ki in experiment [1] was 40 nM.

With `CCCN(CCC)c1cc(C)nc2c(-c3ncc(O)cc3C)c(C)nn12`, the Ki in experiment [1] amounted to 530 nM.

As for `CCCN(CCC)c1cc(C)nc2c(-c3ncc(I)cc3C)c(C)nn12`, in experiment [1], the Ki was determined as 6.6 nM.

In the case of `CCCN(CCC)c1cc(C)nc2c(-c3ncc(C)cc3[N+](=O)[O-])c(C)nn12`, the Ki in experiment [1] is 14 nM.

On to `CCCN(CCC)c1cc(C)nc2c(-c3ncc(N)cc3C)c(C)nn12`, for which, in experiment [1], the Ki stood at 85 nM.

`CCCN(CCC)c1cc(C)nc2c(-c3ncc(OC)cc3C)c(C)nn12`: the inhibition constant (Ki) in experiment [1] came out at 10 nM.

Consider `CCCN(CCC)c1cc(C)nc2c(-c3ncc(C)cc3O)c(C)nn12`, for which, in experiment [1], the Ki was over 10000 nM.

For `CCCN(CCC)c1cc(C)nc2c(-c3ncc(C)cc3N(C)C)c(C)nn12`, in experiment [1], the Ki amounted to 23 nM.

On to `CCCCN(CCCC)c1cc(C)nc2c(-c3ncc(C(F)(F)F)cc3Cl)c(C)nn12`, for which the Ki in experiment [1] came to 1.1 nM.

`CCCN(CCC)c1cc(C)nc2c(-c3ncc([N+](=O)[O-])cc3C)c(C)nn12`: in experiment [1], the Ki amounted to 9.1 nM. In experiment [2], the IC50 worked out at 180 nM.

Consider `CCCN(CCC)c1cc(C)nc2c(-c3ncc(C)cc3OC)c(C)nn12`, for which the Ki in experiment [1] came out at 25 nM.

Take `CCCN(CCC)c1cc(C)nc2c(-c3ncc(N(C)C)cc3C)c(C)nn12`: the Ki in experiment [1] is 10 nM. In experiment [2], this molecule returned an IC50 of 150 nM.

In the case of `CCCN(CCC)c1cc(C)nc2c(-c3ncc(Cl)cc3Cl)c(C)nn12`, the Ki in experiment [1] is 3.2 nM. Half-maximal inhibition in experiment [2] (IC50) was put at 49 nM.

Regarding `CCCN(CCC)c1cc(C)nc2c(-c3ncc(N(CC)CC)cc3C)c(C)nn12`, in experiment [1], the Ki was found to be 13 nM.

With `CCCN(CCC)c1cc(C)nc2c(-c3ncc(C)cc3NC)c(C)nn12`, the Ki in experiment [1] turned out to be 13 nM.

For the molecule `CCCN(CCC)c1cc(C)nc2c(-c3ncc(C)cc3N)c(C)nn12`, in experiment [1], the Ki amounted to 40 nM.

In the case of `CCCN(CCC)c1cc(C)nc2c(-c3ncc(F)cc3C)c(C)nn12`, the Ki in experiment [1] was 19 nM.

Take `CCCN(CCC)c1cc(C)nc2c(-c3ccc(Cl)cn3)c(C)nn12`: the Ki in experiment [1] stood at 88 nM.

As for `CCCN(Cc1ccccc1)c1cc(C)nc2c(-c3ncc(C(F)(F)F)cc3Cl)c(C)nn12`, the Ki in experiment [1] was 1.7 nM.

On to `CCCN(CC1CC1)c1cc(C)nc2c(-c3ncc(C(F)(F)F)cc3Cl)c(C)nn12`, for which, in experiment [1], the Ki worked out at 0.8 nM.

On to `COCCN(CCOC)c1cc(C)nc2c(-c3ncc(Cl)cc3Cl)c(C)nn12`, for which, in experiment [1], the Ki was 78 nM.

On to `CCCN(CCC)c1cc(C)nc2c(-c3ncccc3C)c(C)nn12`, for which, in experiment [1], the Ki is 110 nM.

With `CCCN(CCC)c1cc(C)nc2c(-c3ncc(C(F)(F)F)cc3Cl)c(C)nn12`, the Ki in experiment [1] came out at 1.2 nM.

Consider `CCCN(CCC)c1cc(C)nc2c(-c3ncc(C)cc3Cl)c(C)nn12`, for which the Ki in experiment [1] worked out at 6.2 nM.

As to `CCCN(CCC)c1cc(C)nc2c(-c3ncc(N4CCCCC4)cc3C)c(C)nn12`, the Ki in experiment [1] stood at 17 nM.

In the case of `CCCN(CC1CC1)c1cc(C)nc2c(-c3ncc(Cl)cc3Cl)c(C)nn12`, the Ki in experiment [1] was 3.9 nM.

What is called Ki is the dissociation constant of the complex between target and ligand, obtained from inhibition or displacement. The IC50 is the concentration needed to halve the response being measured. The low end stands for higher potency, the high end for lower potency.
